In the supplement of paper PMC10307832:

Key:
Test in all cases: relative viability (nuclei count vs DMSO), 5 days (fraction); higher = more cells survive
ChaGo-K-1 = system: ChaGo-K-1
Method in brief: (§1)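 Lung cancer cell lines in 1536-well plates were dosed by pin tool the day after seeding, either with one drug alone or with a fixed anchor-drug dose plus five library-drug doses (not always all listed) in √10 steps. After 5 days, cells were fixed and their nuclei stained in one step (final 0.05% Triton X-100, 1% formaldehyde, 1 ug/ml Hoechst), then counted on 4× images. Relative viability is the nuclei count in treated wells divided by that in vehicle wells. Values are medians of duplicate plates.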

NCI-H3122 = system: NCI-H3122
Method in brief: as §1

SW 1573 = system: SW 1573
Method in brief: as §1

A-427 = system: A-427
Method in brief: as §1

NCI-H1944 = system: NCI-H1944
Method in brief: as §1

NCI-H2228 = system: NCI-H2228
Method in brief: as §1

NCI-H1755 = system: NCI-H1755
Method in brief: as §1

NCI-H1355 = system: NCI-H1355
Method in brief: as §1

NCI-H2085 = system: NCI-H2085
Method in brief: as §1

NCI-H322M = system: NCI-H322M
Method in brief: as §1

NCI-H596 = system: NCI-H596
Method in brief: as §1

NCI-H358 = system: NCI-H358
Method in brief: as §1

O=C(O)CCCCC(CCSCc1ccccc1)SCc1ccccc1 (stereo not drawn) [CPI-613] + CS(=O)(=O)N1CCN(Cc2cc3nc(-c4cccc5[nH]ncc45)nc(N4CCOCC4)c3s2)CC1 [Pictilisib] (partner 1 µM)
relative viability (ChaGo-K-1; first compound 50 µM): 0.707 | relative viability (ChaGo-K-1; first compound 158.11 µM): 0.612 | relative viability (ChaGo-K-1; first compound 500 µM): 0.33 | relative viability (NCI-H3122; first compound 5 µM): 0.587 | relative viability (NCI-H3122; first compound 15.81 µM): 0.614 | relative viability (NCI-H3122; first compound 50 µM): 0.591 | relative viability (NCI-H3122; first compound 158.11 µM): 0.605 | relative viability (NCI-H3122; first compound 500 µM): 0.031 | relative viability (SW 1573; first compound 5 µM): 0.532 | relative viability (SW 1573; first compound 15.81 µM): 0.452 | relative viability (SW 1573; first compound 50 µM): 0.554 | relative viability (SW 1573; first compound 158.11 µM): 0.46 | relative viability (SW 1573; first compound 500 µM): 0.481 | relative viability (A-427; first compound 5 µM): 0.742 | relative viability (A-427; first compound 15.81 µM): 0.696 | relative viability (A-427; first compound 50 µM): 0.66 | relative viability (A-427; first compound 158.11 µM): 0.613 | relative viability (A-427; first compound 500 µM): 0.737 | relative viability (NCI-H1944; first compound 5 µM): 0.336 | relative viability (NCI-H1944; first compound 15.81 µM): 0.371 | relative viability (NCI-H1944; first compound 50 µM): 0.351 | relative viability (NCI-H1944; first compound 158.11 µM): 0.347 | relative viability (NCI-H1944; first compound 500 µM): 0.332 | relative viability (NCI-H2228; first compound 5 µM): 0.429 | relative viability (NCI-H2228; first compound 15.81 µM): 0.382 | relative viability (NCI-H2228; first compound 50 µM): 0.596 | relative viability (NCI-H2228; first compound 158.11 µM): 0.374 | relative viability (NCI-H2228; first compound 500 µM): 0.0181 | relative viability (NCI-H1755; first compound 5 µM): 0.39 | relative viability (NCI-H1755; first compound 15.81 µM): 0.4 | relative viability (NCI-H1755; first compound 50 µM): 0.415 | relative viability (NCI-H1755; first compound 158.11 µM): 0.359 | relative viability (NCI-H1755; first compound 500 µM): 0.116 | relative viability (NCI-H1355; first compound 5 µM): 0.417 | relative viability (NCI-H1355; first compound 15.81 µM): 0.389 | relative viability (NCI-H1355; first compound 50 µM): 0.374 | relative viability (NCI-H1355; first compound 158.11 µM): 0.29 | relative viability (NCI-H1355; first compound 500 µM): 0.0921 | relative viability (NCI-H2085; first compound 5 µM): 0.505 | relative viability (NCI-H2085; first compound 15.81 µM): 0.492 | relative viability (NCI-H2085; first compound 50 µM): 0.4 | relative viability (NCI-H2085; first compound 158.11 µM): 0.383 | relative viability (NCI-H2085; first compound 500 µM): 0.343 | relative viability (NCI-H322M; first compound 5 µM): 0.511 | relative viability (NCI-H322M; first compound 15.81 µM): 0.426 | relative viability (NCI-H322M; first compound 50 µM): 0.496 | relative viability (NCI-H322M; first compound 158.11 µM): 0.469 | relative viability (NCI-H322M; first compound 500 µM): 0.53 | relative viability (NCI-H596; first compound 5 µM): 0.423 | relative viability (NCI-H596; first compound 15.81 µM): 0.442 | relative viability (NCI-H596; first compound 50 µM): 0.435 | relative viability (NCI-H596; first compound 158.11 µM): 0.339 | relative viability (NCI-H596; first compound 500 µM): 0.0372 | relative viability (NCI-H358; first compound 5 µM): 0.355 | relative viability (NCI-H358; first compound 15.81 µM): 0.292 | relative viability (NCI-H358; first compound 50 µM): 0.278 | relative viability (NCI-H358; first compound 158.11 µM): 0.255 | relative viability (NCI-H358; first compound 500 µM): 0.0276
